# Reference: article PMC12670400, “LEKTI-Grafted Sunflower Trypsin Inhibitor: A Potential Therapeutic for Skin Diseases” (Journal of Medicinal Chemistry, 2025)
# Bridge positions count the residues as written; N and C are the ends. Peptide text beside a SMILES is read from it.
# What was measured:
# [1] = tested on: endogenous KLK5 of healthy donor keratinocytes; assay: KLK5 protease activity assay for culture medium of healthy donor keratinocytes; format: biochemical, human; details: 100 nM, 1 μM, 10 μM; p > 0.05, n = 9
# Method: (§1) To evaluate the inhibition of lead 7 on endogenous KLK5 activity, media collected from cultured NS keratinocytes and healthy donor keratinocytes were incubated with lead 7 at the final concentration of 100 nM, or 1 μM, or 10 μM for one hour. Media were then concentrated, and KLK5 activity was measured. […] There were significant differences in KLK5 activity before and after treatment (p < 0.05, n = 3). […] This may be because lead 7 exerts inhibitory effects only when KLK5 activity exceeds a certain threshold, which is not reached in keratinocytes from healthy donors. It was noted that the activity of KLK5 in NS was not reduced to the levels observed in normal keratinocytes. […]
# calcium signalling. […] Fluorescence excitation was set at 485 nm, and emission was recorded at 520 nm using SpectraMax® i3x plate reader. […]
# Keratinocytes were seeded in 6 well plate with the density of 0.2 × 10⁶ cells per well and cultured in RM+ medium until they reached confluency. […] The enzymatic reaction was initiated by adding 100 µL of Boc-VPR-AMC substrate (final concentration 100 µM) to each well and RFU values in samples were measured. Protease activities were expressed as nmol/g by first converting RFU readings to KLK5 equivalent concentration activity using a KLK5 standard curve, followed by normalization to total protein content
# [2] = tested on: endogenous KLK5 of NS keratinocytes; assay: KLK5 protease activity assay for culture medium of NS keratinocytes; format: biochemical, human; details: for KLK5 activity in NS keratinocytes medium after treatment: one hour, n = 3, untreated 51.9 ± 1.6 nmol/g
# Method: as §1, with “keratinocytes. Two reasons might be behind this: (i) a higher lead 7 dose may be required, and (ii) the VPR-AMC substrate can be cleaved by a wider range of serine proteases. The remaining noninhibitory activity could be attributed to the presence of other trypsin-like serine proteases secreted in the cultured medium, which can hydrolyze the VPR-AMC substrate but are not inhibited by lead 7.” for “keratinocytes.”
# KLK5 protease activity assay for culture medium
# Keratinocytes were seeded in 6 well plate with the density of 0.2 × 10⁶ cells per well and cultured in RM+ medium until they reached confluency. The culture media were changed to FBS free-RM+ media, and cells were continuously cultured. 48 hours after the medium changing, the culture media were harvested from the cell culture plates and centrifuged to remove dead cells. A volume of 180 µL of the supernatants was transferred to 1.5 mL Eppendorf tubes, followed by the addition of 20 µL of analogues in 1x PBS at different concentrations. The samples in which 20 µL of 1x PBS instead of the lead 7 were added were as untreated controls. These mixtures were incubated for one hours at 37 degrees Celsius and then processed for precipitation to concentrate the samples using ProteoExtract® Protein Precipitation Kit (Millipore, cat no. 539180). The precipitates were resuspended in 20 µL of 1X PBS (pH 8.0) for protease activity assessment using protease activity assay. 10uL of suspension from each sample was added in 96 well black plate. The enzymatic reaction was initiated by adding 100 µL of Boc-VPR-AMC substrate (final concentration 100 µM) to each well and RFU values in samples were measured. Protease activities were expressed as nmol/g by first converting RFU readings to KLK5 equivalent concentration activity using a KLK5 standard curve, followed by normalization to total protein content
structure (smiles),measurement,setting,value
C[C@@H](O)[C@@H]1NC(=O)[C@@H]2CSSC[C@H](NC(=O)[C@H](CCC(=O)O)NC(=O)[C@@H]3CCCN3C(=O)[C@@H]3CCCN3C(=O)[C@H](CC(N)=O)NC(=O)[C@H](CO)NC(=O)[C@H](CCCNC(=N)N)NC1=O)C(=O)N[C@@H](Cc1c[nH]c3ccccc13)C(=O)N1CCC[C@H]1C(=O)N[C@@H](CC(N)=O)C(=O)NCC(=O)N[C@@H](Cc1ccccc1)C(=O)N2 [compound 7] (cyclo(GFCTRSNPPECWPN); disulfide 3-11),"KLK5 activity before and after treatment, normal donor keratinocytes",[1],no significant differences
same,"reduction in KLK5 activity, NS keratinocytes",[2]; 100 nM,14.6%
same,KLK5 activity in NS keratinocytes medium after treatment,[2]; 100 nM,44.3 ± 2.7 nmol/g
same,"reduction in KLK5 activity, NS keratinocytes",[2]; 1 μM,35.5%
same,KLK5 activity in NS keratinocytes medium after treatment,[2]; 1 μM,33.5 ± 2.6 nmol/g
same,"reduction in KLK5 activity, NS keratinocytes",[2]; 10 μM,41.2%
same,KLK5 activity in NS keratinocytes medium after treatment,[2]; 10 μM,30.5 ± 1.7 nmol/g
